# How the values were obtained:
# CV-1 cells = assay: MTT cytotoxicity; format: cell-based
# Method: (§1) HFPO-DA was assessed for agonism and antagonism of transcriptional activation for estrogen (ER), androgen (AR), and glucocorticoid receptors (GR). Method details for in vitro transactivation assays for ER ([Wilson et al. 2004a]), AR ([Hartig et al. 2002], [2007]), and GR ([Conley et al. 2017]; [Medlock Kakaley et al. 2018]) have been previously reported. Briefly, for ER activity we utilized the stably transfected T47D-KBluc cell line [publicly available via American Type Culture Collection (ATCC); CRL-2865] according to protocols provided by ATCC with the modification of Dulbecco’s Modified Eagle Media (DMEM) as the cell culture media instead of Roswell Park Memorial Institute (RPMI) media. […] All assays were run in 96-well plates and luminescence was detected using a BMG Fluostar Omega luminometer (BMG Labtech) following 24-h exposure. […] Cellular cytotoxicity across the dosing range was determined for CV-1 cells utilizing the 3-(4,5-dimethylthiazol-2-yl)-2,5-diphenyltetrazolium bromide (MTT) dye ([Mosmann 1983]). HFPO-DA was analyzed using n=2–3 biological replicate assay plates (i.e., unique cell passages) with four technical replicates per treatment per plate.
# chimp AR = biological target: T1, chimp AR (Pan troglodytes, UniProt O97775); assay: AR transcriptional activation, CV-1 cells; format: cell-based
# T1 construct: expressed in transfected cells; host or cells: CV-1 cells (ATCC CCL-70), adenoviral transduction
# T1 sequence (O97775 1-911): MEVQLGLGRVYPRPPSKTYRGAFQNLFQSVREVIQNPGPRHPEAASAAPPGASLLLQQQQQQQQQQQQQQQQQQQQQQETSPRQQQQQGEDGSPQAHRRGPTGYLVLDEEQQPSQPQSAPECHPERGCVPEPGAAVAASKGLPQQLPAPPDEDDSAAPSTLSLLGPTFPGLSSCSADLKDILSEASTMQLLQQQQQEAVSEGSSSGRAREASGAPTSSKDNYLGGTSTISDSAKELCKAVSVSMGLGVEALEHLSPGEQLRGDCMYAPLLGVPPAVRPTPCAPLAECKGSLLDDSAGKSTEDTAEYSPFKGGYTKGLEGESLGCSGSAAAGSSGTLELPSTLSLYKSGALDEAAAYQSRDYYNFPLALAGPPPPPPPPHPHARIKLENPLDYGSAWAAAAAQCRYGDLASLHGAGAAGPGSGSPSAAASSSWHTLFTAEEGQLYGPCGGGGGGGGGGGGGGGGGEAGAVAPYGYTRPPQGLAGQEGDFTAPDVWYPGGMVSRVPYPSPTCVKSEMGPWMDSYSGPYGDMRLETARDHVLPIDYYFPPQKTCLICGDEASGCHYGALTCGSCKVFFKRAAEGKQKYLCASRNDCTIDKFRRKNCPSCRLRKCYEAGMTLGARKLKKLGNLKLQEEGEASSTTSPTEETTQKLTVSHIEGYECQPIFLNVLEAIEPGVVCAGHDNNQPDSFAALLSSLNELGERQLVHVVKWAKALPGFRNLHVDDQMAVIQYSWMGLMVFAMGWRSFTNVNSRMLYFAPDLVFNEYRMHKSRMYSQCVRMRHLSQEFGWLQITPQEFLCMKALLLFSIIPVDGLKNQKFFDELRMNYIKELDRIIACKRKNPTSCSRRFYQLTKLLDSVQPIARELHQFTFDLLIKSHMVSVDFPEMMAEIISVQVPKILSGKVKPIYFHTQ
# Method: as §1, with “plate. […]” for “plate.”
smiles,measurement,setting,value
"O=C(O)C(F)(OC(F)(F)C(F)(F)C(F)(F)F)C(F)(F)F (stereo not drawn) [HFPO-DA, Hexafluoropropylene oxide dimer acid]",cytotoxic dose,CV-1 cells,300 µM
same,androgen receptor agonism,chimp AR; 100 pM to 100 μM,no androgen or glucocorticoid receptor agonism
same,"androgen receptor antagonism, reduction in luciferase expression","chimp AR; 100 μM, versus 100 pM DHT",42±1%
